ChEMBL document CHEMBL1201862, “PubChem BioAssay data set” (2004)
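The compound was tested at five concentrations on cells cultured in 96-well plates, with a 48-hour exposure period. Here, GI50 denotes the concentration required for 50% inhibition of growth.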 Calls of active or inactive are those of the source. No stated cut-off is given here; in the data, active = GI50 up to about 1.1 µM and inactive = higher.

Experiments:
Assay in all cases: growth of human tumour cells (NCI), 48 h
OVCAR-3 = tested on: OVCAR-3
OVCAR-8 = tested on: OVCAR-8
SK-MEL-5 = tested on: SK-MEL-5
PC-3 = tested on: PC-3
Hs-578T = tested on: Hs-578T
NCI-H226 = tested on: NCI-H226
HT-29 = tested on: HT-29
MDA-MB-231 = tested on: MDA-MB-231
K562 = tested on: K562
NCI-H23 = tested on: NCI-H23
HCT-116 = tested on: HCT-116
RPMI-8226 = tested on: RPMI-8226
UACC-62 = tested on: UACC-62
U-251 = tested on: U-251
SNB-75 = tested on: SNB-75
HL-60 = tested on: HL-60
OVCAR-5 = tested on: OVCAR-5
IGROV-1 = tested on: IGROV-1
SK-MEL-28 = tested on: SK-MEL-28

Measured: GI50

c1ccc(CCCN2C3CCC2CN(CCOC(c2ccccc2)c2ccccc2)C3)cc1
inactive: OVCAR-3 13.2 µM | OVCAR-8 11.4 µM | SK-MEL-5 3.3 µM | PC-3 6.43 µM | Hs-578T 13.9 µM | NCI-H226 11.3 µM | HT-29 3.58 µM | MDA-MB-231 8.3 µM | K562 3.91 µM | NCI-H23 11.1 µM | HCT-116 7.05 µM | RPMI-8226 3.11 µM | UACC-62 12.9 µM | U-251 8.04 µM | SNB-75 5.41 µM | HL-60 5.69 µM | OVCAR-5 12.7 µM | IGROV-1 13.8 µM | SK-MEL-28 13.3 µM

C=C(CCC/C(C)=C/C=C/[C@]1(C)CCCc2ccoc21)CC(=O)O
inactive: OVCAR-3 54.8 µM | OVCAR-8 > 100 µM | SK-MEL-5 > 100 µM | PC-3 90.6 µM | Hs-578T 50.5 µM | NCI-H226 > 100 µM | HT-29 > 100 µM | MDA-MB-231 > 100 µM | K562 84.3 µM | NCI-H23 > 100 µM | HCT-116 60 µM | RPMI-8226 54.2 µM | UACC-62 75.3 µM | U-251 68.4 µM | SNB-75 > 100 µM | HL-60 43.6 µM | OVCAR-5 > 100 µM | IGROV-1 > 100 µM | SK-MEL-28 > 100 µM

C(=C\c1cccc(/C=C/c2ccccn2)n1)/c1ccccn1
inactive: OVCAR-3 79.3 µM | OVCAR-8 36.2 µM | SK-MEL-5 48.4 µM | PC-3 58.9 µM | Hs-578T 19.5 µM | NCI-H226 > 100 µM | HT-29 56.8 µM | MDA-MB-231 > 100 µM | K562 47.8 µM | NCI-H23 66.5 µM | HCT-116 68.9 µM | RPMI-8226 43.6 µM | UACC-62 27.1 µM | U-251 > 100 µM | SNB-75 37.4 µM | HL-60 72.4 µM | OVCAR-5 > 100 µM | IGROV-1 61.8 µM | SK-MEL-28 81.3 µM

c1ccc(CC(Nc2cccnc2)c2ccccc2)cc1 (stereo not given)
inactive: OVCAR-3 16.4 µM | OVCAR-8 28.2 µM | SK-MEL-5 15.7 µM | PC-3 24.8 µM | Hs-578T 37.2 µM | NCI-H226 24.2 µM | HT-29 16.4 µM | MDA-MB-231 20 µM | K562 17.5 µM | NCI-H23 26.7 µM | HCT-116 15.5 µM | RPMI-8226 17 µM | UACC-62 16.6 µM | U-251 19.5 µM | SNB-75 24.9 µM | HL-60 23.9 µM | OVCAR-5 33.3 µM | IGROV-1 31 µM | SK-MEL-28 31 µM

COC(=O)c1c(C)cccc1/C=C1\Cc2ccc(C)c(C)c2C1=O
inactive: OVCAR-3 > 100 µM | OVCAR-8 > 100 µM | SK-MEL-5 > 100 µM | PC-3 > 100 µM | Hs-578T > 100 µM | NCI-H226 > 100 µM | HT-29 > 100 µM | MDA-MB-231 > 100 µM | K562 8.32 µM | NCI-H23 > 100 µM | HCT-116 > 100 µM | RPMI-8226 56.2 µM | UACC-62 14.5 µM | U-251 48.9 µM | SNB-75 40.6 µM | HL-60 > 100 µM | OVCAR-5 > 100 µM | IGROV-1 > 100 µM | SK-MEL-28 > 100 µM

O=C(Nc1ccccc1)OCCN=C1c2ccccc2CCc2ccccc21
inactive: OVCAR-3 13.6 µM | OVCAR-8 31.5 µM | SK-MEL-5 13.4 µM | PC-3 19.6 µM | Hs-578T 18.5 µM | NCI-H226 29.4 µM | HT-29 18.5 µM | MDA-MB-231 15.1 µM | K562 15.1 µM | NCI-H23 55.2 µM | HCT-116 14.6 µM | RPMI-8226 12.8 µM | UACC-62 13.1 µM | U-251 17.3 µM | SNB-75 11.9 µM | HL-60 13.8 µM | OVCAR-5 28.7 µM | IGROV-1 19.1 µM | SK-MEL-28 15.4 µM

CC1CCC2(C(=O)O)CCC3(C)C(=CCC4C5(C)CC(O)C(O)C(C)(CO)C5C(O)CC43C)C2C1C (stereo not given)
inactive: OVCAR-3 24.1 µM | OVCAR-8 21.1 µM | SK-MEL-5 41.8 µM | PC-3 83.6 µM | Hs-578T 19.4 µM | NCI-H226 > 79.6 µM | HT-29 > 88.5 µM | MDA-MB-231 39.9 µM | K562 41.1 µM | NCI-H23 65.8 µM | HCT-116 5.65 µM | RPMI-8226 33.4 µM | UACC-62 21.3 µM | U-251 21.6 µM | SNB-75 28.1 µM | HL-60 20.2 µM | OVCAR-5 > 100 µM | IGROV-1 19.2 µM | SK-MEL-28 30.8 µM

O=C1OC(c2ccco2)=N/C1=C\c1cccc([N+](=O)[O-])c1
inactive: OVCAR-3 > 100 µM | OVCAR-8 > 100 µM | SK-MEL-5 > 100 µM | PC-3 > 100 µM | Hs-578T > 100 µM | NCI-H226 > 100 µM | HT-29 > 100 µM | MDA-MB-231 > 100 µM | K562 > 100 µM | NCI-H23 > 100 µM | HCT-116 > 100 µM | RPMI-8226 > 100 µM | UACC-62 > 100 µM | U-251 > 100 µM | SNB-75 > 100 µM | HL-60 > 100 µM | OVCAR-5 > 100 µM | IGROV-1 > 100 µM | SK-MEL-28 > 100 µM

CC(C)(C)c1cc(C(C)(C)C)c(SC2OC(CO)C(O)C(O)C2O)c(O)c1O (stereo not given)
inactive: OVCAR-3 7.66 µM | OVCAR-8 7.62 µM | SK-MEL-5 5.57 µM | PC-3 9.18 µM | Hs-578T 3.22 µM | NCI-H226 12.3 µM | HT-29 7.1 µM | MDA-MB-231 17.8 µM | K562 2.93 µM | NCI-H23 4.42 µM | HCT-116 13.1 µM | RPMI-8226 15.1 µM | UACC-62 2.2 µM | U-251 7.43 µM | SNB-75 1.55 µM | HL-60 3.27 µM | OVCAR-5 9.18 µM | IGROV-1 9.64 µM | SK-MEL-28 15.6 µM

O=c1c(Cc2cccc(Cc3c(O)oc4ccccc4c3=O)c2)c(O)oc2ccccc12
inactive: OVCAR-3 > 100 µM | OVCAR-8 > 100 µM | SK-MEL-5 > 100 µM | PC-3 > 100 µM | Hs-578T > 100 µM | NCI-H226 > 100 µM | HT-29 > 100 µM | MDA-MB-231 > 100 µM | K562 > 100 µM | NCI-H23 > 100 µM | HCT-116 > 100 µM | RPMI-8226 > 100 µM | UACC-62 > 100 µM | U-251 > 100 µM | SNB-75 43 µM | HL-60 > 100 µM | OVCAR-5 > 100 µM | IGROV-1 > 100 µM | SK-MEL-28 > 100 µM
